Columns and labels:
[1] = target: T1, human indolethylamine N-methyltransferase (hINMT) (Homo sapiens, UniProt O95050); assay: quinoline-based continuous fluorometric methylation assay; format: biochemical
[2] = target: T1, human indolethylamine N-methyltransferase (hINMT); assay: thermal shift assay; format: binding

T1 sequence (O95050 whole entry): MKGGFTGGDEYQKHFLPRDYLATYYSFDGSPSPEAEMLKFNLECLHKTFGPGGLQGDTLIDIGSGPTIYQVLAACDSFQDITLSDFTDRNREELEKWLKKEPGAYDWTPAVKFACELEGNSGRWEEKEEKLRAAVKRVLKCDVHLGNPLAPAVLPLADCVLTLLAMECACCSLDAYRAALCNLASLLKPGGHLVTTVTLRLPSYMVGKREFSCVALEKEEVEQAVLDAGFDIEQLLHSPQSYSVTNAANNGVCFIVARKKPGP

| IC50 [1] | Kd [2] | SMILES |
| --- | --- | --- |
| 188.5 ± 1.8 µM |  | CNS(=O)(=O)CCc1ccc2[nH]cc(C3CCN(C)CC3)c2c1 [Naratriptan] |
|  | 55.6 ± 2.6 µM | C[S+](CC[C@H](N)C(=O)[O-])C[C@H]1O[C@@H](n2cnc3c(N)ncnc32)[C@H](O)[C@@H]1O (some centres unmarked) [SAM] |
